In one test the test system is tubulin. The test can be described thus: Fluorescence-based tubulin polymerization assay (MPA; enhancement for paclitaxel, inhibition for vinblastine). The format is biochemical. The method, boiled down: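 Tubulin polymerisation was followed by fluorescence (ex 360/em 405 nm) with 1 mg/ml BSA in all assays. For paclitaxel conjugates, glycerol was omitted. Parent drugs and conjugates were tested at 0.75, 1.5, 3 and 10 micromolar final, and values come from the linear range of the dose responses.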

The next test has as its system MCF-7 breast carcinoma. The test can be described thus: Cytotoxicity assay (monolayer), MCF-7.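 Further: cells treated 72 h with 6-8 compound doses versus DMSO vehicle controls, EC50 fitted by 4-parameter dose-response curves, averaged across all tests and lots.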 In kind it is cell-based. To be noted: MCF7, ML (monolayer); read-out: MCF7 (EC50 Ave) ML.
The next test has as its system MCF-7 cells. To be noted: read-out: MCF7 (EC50 Ave) SA; MCF7, SA (soft agar).
In another test the test system is HUVEC. The test can be described thus: Cytotoxicity assay (monolayer), HUVEC. The format is cell-based. To be noted: ML (monolayer), read-out: HUVEC (EC50 Ave) ML.
The next test addresses Akt (Homo sapiens, UniProt P31749). The test can be described thus: Akt kinase assay (PKLight ATP utilization, substrate phosphorylation as % of parent peptide). In kind it is biochemical. On the set-up: purchased Upstate (Charlottesville, Va.) 14-276. As to the method: Another test may involve monitoring the consumption of ATP. For example, ATP concentrations at time 0 or after 4 hour incubation may be monitored by luciferase reaction (PKLight kit obtained from Cambrex Corporation, One Meadowlands Plaza, East Rutherford, N.J. 07073), which generate a luminescence readout in the presence of ATP. Assays are initiated by mixing a kinase and a peptide in the presence of 40 μM ATP. After 4 hour of incubation at 30° C., PKLight reagent is added and mixed well, and luminescence readout measured. The rate of peptide phosphorylation is then directly related to the rate of decrease in the observed luminescence. Based on the first test, linkers of appropriate lengths and peptides with an effective amount of kinase activity which may be expected to be retained in the drug conjugate may be found.
Human Src (#14-326) and Akt (#14-276) kinases were purchased from Upstate (Charlottesville, Va.). Kinase reactions were carried out in 50 μl kinase reaction cocktail (25 mM Tris-HCl, pH 7.5, 5 μM β-glycerophosphate, 2 mM DTT, 0.1 mM Na3VO4, 10 mM MgCl2, 1 mg/ml BSA, […], 0.5 to 1.0 units enzyme). Substrates (peptide or drug-peptide conjugate in […]) were added (25, 50 and 100 μM) and the reaction was incubated for 2-5 hours at 30° C. PKLight reagent (23 μl) (Cambrex BioSciences, Rockland, Me.) was mixed with […] of the above kinase reaction and ATP utilization relative to no substrate and no ATP controls was determined by measuring luminescence with a SpectraMax Gemini EM plate reader (Molecular Devices, Sunnyvale, Calif.). Peptide substrates for Src and Akt have been described. For examples, see Lou et al. Letters in Peptide Science, 2, 289-296 (1995); Lou et al. Bioorganic & Medicinal Chemistry, 4, 677-682 (1996); Alessi et al. FEBS Letters, 399, 333-338 (1996). Substrate phosphorylation potential was determined from the linear portion of the substrate concentration dose response as a percentage of the activity observed with the parent peptide used for drug conjugation.

Another test relates to HT-29 cells. To be noted: read-out: HT29 (EC50 Ave) SA; HT29, SA (soft agar).
The subject of test [1] is Normal human foreskin fibroblasts (HFF). To be noted: read-out: HFF (EC50 Ave) ML; HFF, ML (monolayer).
The test system of test [2] is HT-29 colorectal carcinoma. The test can be described thus: Cytotoxicity assay (monolayer), HT-29.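 Further: monolayer cultures tested in triplicate, compound exposure for three days against DMSO vehicle controls, EC50 fitted from dose-response curves and averaged across all tests and lots.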 The format is cell-based. To be noted: HT29, ML (monolayer); read-out: HT29 (EC50 Ave) ML.

Primed or numbered codes have the meaning given here. * marks the point of attachment. 10Ca‑PXL = paclitaxel conjugated at C10 via a carbamate; 10Ca‑PXL″ = paclitaxel attached at C10 via carbamate; 3Am‑VBL = vinblastine (VBL) conjugate; 3Am‑VBL″ = vinblastine conjugate; PEG(11) = PEG(11) linker; DMAB = not defined here; 3Am = not defined here; Cbz = O=C(OCc1ccccc1)*; PEG(13) = PEG13 linker; Piv = CC(C)(C)C(=O)*; OBn = c1ccc(CO*)cc1; VBL = vinblastine

Chain of Akt (P31749 whole entry): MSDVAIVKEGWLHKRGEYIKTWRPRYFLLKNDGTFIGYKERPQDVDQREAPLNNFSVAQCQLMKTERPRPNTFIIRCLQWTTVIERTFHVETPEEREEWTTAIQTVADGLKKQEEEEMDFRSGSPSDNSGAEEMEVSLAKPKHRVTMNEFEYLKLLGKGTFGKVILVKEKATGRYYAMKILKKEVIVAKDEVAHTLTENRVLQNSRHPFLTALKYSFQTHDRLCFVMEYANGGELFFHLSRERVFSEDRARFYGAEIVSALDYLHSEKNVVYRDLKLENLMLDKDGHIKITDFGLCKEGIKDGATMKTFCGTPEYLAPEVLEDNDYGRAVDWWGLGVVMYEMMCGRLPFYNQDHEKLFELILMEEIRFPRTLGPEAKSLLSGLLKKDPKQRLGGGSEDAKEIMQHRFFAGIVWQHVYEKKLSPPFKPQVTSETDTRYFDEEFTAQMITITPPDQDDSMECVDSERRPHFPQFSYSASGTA

Usually EC50 stands for the concentration at which the effect is half-maximal. With “Pv-GRPRAAAFAEG-PEG(13)-10Ca-PXL (Piv-GRPRAAAFAEG-{PEG(13)-10Ca‑PXL}; also: 2 TFA salt)”, in the test with tubulin, the “Ave. MPA Act.” value is given as “C (C>80)”. In addition, the EC50 in the test with MCF-7 breast carcinoma was over 100 nM; with MCF-7 cells, 20 to 100 nM; in the test on HUVEC it was over 100 nM; with HT-29 cells, 20 to 100 nM; in test [1], over 100 nM; in test [2] it was over 100 nM. In addition, the “Ave. Akt Kinase Act.” value with Akt is on record as “C (C>40)”.

Regarding “Ac-RPRTSSF-PEG(13)-10Ca-PXL (N-acetyl; PEG(13) linker; paclitaxel conjugate)”, the “Ave. MPA Act.” value with tubulin is “C (C>80)”. For the same substance, the EC50 with MCF-7 breast carcinoma is over 100 nM; in the test on MCF-7 cells it was over 100 nM; in the test on HUVEC it was over 100 nM; in the test with HT-29 cells it was 20 to 100 nM; in test [1] it was over 100 nM; in test [2], over 100 nM. Besides, the “Ave. Akt Kinase Act.” value in the test with Akt is recorded as “C (C>40)”.

Consider “CBz-RPRTSSF-PEG(29)-3Am-VBL (N-CBz; PEG(29) linker; vinblastine conjugate)”, for which, in the test with tubulin, the “Ave. MPA Act.” value is “B (B=50-80)”. The EC50 (with MCF-7 breast carcinoma; in the test with MCF-7 cells; with HUVEC; in test [1]; in test [2]) was over 100 nM throughout. Besides, the “Ave. Akt Kinase Act.” value in the test with Akt is “C (C>40)”.

Take “Ac-GRPRTSSFAEG-3Am-VBL (Ac-GRPRTSSFAEG-{3Am-VBL}; reading uncertain; also: TFA salt, printed as Ac-GRPRTSSFAEG-3Am-VBL)”: the “Ave. MPA Act.” value with tubulin is on record as “C (C>80)”. Also, the EC50 in the test on MCF-7 breast carcinoma is 20 to 100 nM; in the test on HUVEC, under 20 nM; in test [1], 20 to 100 nM; in test [2], 20 to 100 nM. Besides, the “Ave. Akt Kinase Act.” value in the test with Akt is on record as “C (C>40)”.

As to “Pv-GRPRTSSFAE(Bzl)G-PEG(13)-10Ca-PXL (Piv-GRPRTSSFAE(OBn)G-{PEG(13)-10Ca‑PXL″})”, the “Ave. MPA Act.” value with tubulin is listed as “C (C>80)”. Moreover, the EC50 (in the test on MCF-7 breast carcinoma; in the test with MCF-7 cells; in the test with HUVEC; in the test on HT-29 cells; in test [1]; in test [2]) was over 100 nM each time. For the same substance, in the test with Akt, the “Ave. Akt Kinase Act.” value is reported as “C (C>40)”.

On to “BOC-RPRTSSF-PEG(11)-3Am-VBL (N-BOC; PEG(11) linker; vinblastine conjugate)”, for which, in the test on tubulin, the “Ave. MPA Act.” value is “C (C>80)”. The EC50 (with MCF-7 breast carcinoma; in the test with HUVEC; in test [1]; in test [2]) was 20 to 100 nM throughout. Moreover, the “Ave. Akt Kinase Act.” value with Akt is listed as “C (C>40)”.

Turning to “Pv-RSRTSSF-PEG(11)-3Am-VBL (Piv-RSRTSSF-{PEG(11)-3Am‑VBL}; also: 2 TFA salt)”, the “Ave. MPA Act.” value with tubulin is recorded as “C (C>80)”. Moreover, the EC50 (in the test with MCF-7 breast carcinoma; with HUVEC; in test [1]; in test [2]) was over 100 nM in each case. Moreover, in the test with Akt, the “Ave. Akt Kinase Act.” value is given as “C (C>40)”.

As to “Ac-RPRTSSF-PEG(11)-3Am-VBL (N-acetyl; PEG(11) linker; vinblastine conjugate)”, the “Ave. MPA Act.” value in the test on tubulin is “C (C>80)”. Further, the EC50 in the test on MCF-7 breast carcinoma is 20 to 100 nM; in the test on HUVEC, over 100 nM; in test [1] it was 20 to 100 nM; in test [2], 20 to 100 nM. Further, the “Ave. Akt Kinase Act.” value with Akt was “C (C>40)”.

“CBz-RPRTSSF-PEG(13)-10Ca-PXL (N-CBz; PEG(13) linker; paclitaxel conjugate)”: the “Ave. MPA Act.” value in the test on tubulin is given as “C (C>80)”. For the same substance, the EC50 in the test on MCF-7 breast carcinoma was over 100 nM; in the test on MCF-7 cells it was 20 to 100 nM; in the test on HUVEC, over 100 nM; in the test on HT-29 cells, 20 to 100 nM; in test [1], over 100 nM; in test [2] it was 20 to 100 nM. Further, the “Ave. Akt Kinase Act.” value in the test with Akt was “C (C>40)”.

In the case of CBz-GRPRTSSFAE(Bzl)G-3Am-VBL, the “Ave. MPA Act.” value in the test with tubulin is “B (B=50-80)”. Moreover, the EC50 with MCF-7 breast carcinoma is 20 to 100 nM; with MCF-7 cells it was 20 to 100 nM; with HUVEC, under 20 nM; in the test with HT-29 cells, 20 to 100 nM; in test [1] it was 20 to 100 nM; in test [2], 20 to 100 nM. Further, the “Ave. Akt Kinase Act.” value in the test with Akt is listed as “C (C>40)”.

For “CBz-RPRTSSF-PEG(13)-10Ca-PXL x (N-CBz; PEG(13) linker; paclitaxel conjugate; salt)”, the “Ave. MPA Act.” value in the test with tubulin is given as “C (C>80)”. Moreover, the EC50 (with MCF-7 breast carcinoma; in the test on MCF-7 cells; in the test with HUVEC; in the test with HT-29 cells; in test [1]; in test [2]) was over 100 nM in each case. The “Ave. Akt Kinase Act.” value in the test with Akt is reported as “C (C>40)”.

On to “Pv-GRPRTSSFAE(DMAB)G-3Am-VBL (Piv-GRPRTSSFAE(DMAB)G-{3Am‑VBL″}; not fully specified; reading uncertain)”, for which the “Ave. MPA Act.” value in the test on tubulin is on record as “C (C>80)”. Also, the EC50 (with MCF-7 breast carcinoma; in the test on HUVEC; in test [1]; in test [2]) was over 100 nM each time. For the same substance, the “Ave. Akt Kinase Act.” value with Akt is reported as “C (C>40)”.

Turning to “Ph(C═O)-RPRTSSF-PEG(11)-3Am-VBL (N-benzoyl; PEG(11) linker; vinblastine conjugate)”, in the test on tubulin, the “Ave. MPA Act.” value is given as “C (C>80)”. Also, the EC50 (in the test with MCF-7 breast carcinoma; in the test on HUVEC; in test [1]; in test [2]) was 20 to 100 nM in each case. Also, in the test with Akt, the “Ave. Akt Kinase Act.” value is recorded as “C (C>40)”.

For the substance “BOC-RPRTSSF-PEG(13)-10Ca-PXL (N-BOC; PEG(13) linker; paclitaxel conjugate)”, in the test on tubulin, the “Ave. MPA Act.” value was “C (C>80)”. Further, the EC50 in the test with HUVEC was over 100 nM; in the test on HT-29 cells, over 100 nM; in test [1], 20 to 100 nM. In addition, the “Ave. Akt Kinase Act.” value with Akt was “C (C>40)”.

Take “CBz-GRPRTSSFAEG-3Am-VBL (Cbz-GRPRTSSFAEG-{3Am-VBL}; reading uncertain; also: printed as CBz-GRPRTSSFAEG-3Am-VBL)”: the “Ave. MPA Act.” value with tubulin was “C (C>80)”. Further, the EC50 (in the test with MCF-7 breast carcinoma; in the test on HUVEC; in test [1]; in test [2]) was over 100 nM each time. In the test with Akt, the “Ave. Akt Kinase Act.” value was “C (C>40)”.
